Source: ChEMBL document CHEMBL5724914, “Linking interpersonal differences in gut microbiota composition and drug biotransformation activity” (2024)

Assay: (§1) The drug is tested on Z-029 corresponding to rat gut metagenome with ENA study accession number: PRJEB37062 and ENA sample accession number: ERS12561828 for biotransformation under anaerobic condition. The drug concentrations were measured over 9 timepoints collected between 0 and 24 hours of incubation by liquid-chromatography-coupled mass spectrometry (LC–MS)
Conditions: 2 µM
Further: call rule not given here.

Row | Bacterial Biotransformation | Structure (SMILES)
1 | Compound NOT metabolized | CCN(CC)CCNC(=O)c1cc(S(C)(=O)=O)ccc1OC [TIAPRIDE]
2 | Compound NOT metabolized | CC(C)(C)NC[C@H](O)COc1nsnc1N1CCOCC1.O=C(O)/C=C\C(=O)O [TIMOLOL MALEATE]
3 | Compound NOT metabolized | CC[C@@]1(O)C(=O)OCc2c1cc1n(c2=O)Cc2cc3c(CN(C)C)c(O)ccc3nc2-1 [TOPOTECAN]

Assay: as §1, with “Z-027” for “Z-029”, “to” for “to rat gut”, “ERS12561826” for “ERS12561828”
Conditions: 2 µM

Row | Bacterial Biotransformation | Structure (SMILES)
4 | Compound NOT metabolized | CCN(CC)CCNC(=O)c1cc(S(C)(=O)=O)ccc1OC [TIAPRIDE]
5 | Compound NOT metabolized | CC(C)(C)NC[C@H](O)COc1nsnc1N1CCOCC1.O=C(O)/C=C\C(=O)O [TIMOLOL MALEATE]
6 | Compound NOT metabolized | CC[C@@]1(O)C(=O)OCc2c1cc1n(c2=O)Cc2cc3c(CN(C)C)c(O)ccc3nc2-1 [TOPOTECAN]

Assay: as §1, with “on Z-024” for “on Z-029”, “to pig” for “to rat”, “number: ERS12561823” for “number: ERS12561828”
Conditions: 2 µM

Row | Bacterial Biotransformation | Structure (SMILES)
7 | Compound NOT metabolized | CCN(CC)CCNC(=O)c1cc(S(C)(=O)=O)ccc1OC [TIAPRIDE]
8 | Compound NOT metabolized | CC(C)(C)NC[C@H](O)COc1nsnc1N1CCOCC1.O=C(O)/C=C\C(=O)O [TIMOLOL MALEATE]
9 | Compound NOT metabolized | CC[C@@]1(O)C(=O)OCc2c1cc1n(c2=O)Cc2cc3c(CN(C)C)c(O)ccc3nc2-1 [TOPOTECAN]

Assay: as §1, with “on Z-016” for “on Z-029”, “to mouse” for “to rat”, “number: ERS12561815” for “number: ERS12561828”
Conditions: 2 µM

Row | Bacterial Biotransformation | Structure (SMILES)
10 | Compound NOT metabolized | CCN(CC)CCNC(=O)c1cc(S(C)(=O)=O)ccc1OC [TIAPRIDE]
11 | Compound NOT metabolized | CC(C)(C)NC[C@H](O)COc1nsnc1N1CCOCC1.O=C(O)/C=C\C(=O)O [TIMOLOL MALEATE]
12 | Compound NOT metabolized | CC[C@@]1(O)C(=O)OCc2c1cc1n(c2=O)Cc2cc3c(CN(C)C)c(O)ccc3nc2-1 [TOPOTECAN]

Assay: as §1, with “Z-012” for “Z-029”, “to” for “to rat gut”, “ERS12561812” for “ERS12561828”
Conditions: 2 µM

Row | Bacterial Biotransformation | Structure (SMILES)
13 | Compound NOT metabolized | CCN(CC)CCNC(=O)c1cc(S(C)(=O)=O)ccc1OC [TIAPRIDE]
14 | Compound NOT metabolized | CC(C)(C)NC[C@H](O)COc1nsnc1N1CCOCC1.O=C(O)/C=C\C(=O)O [TIMOLOL MALEATE]
15 | Compound NOT metabolized | CC[C@@]1(O)C(=O)OCc2c1cc1n(c2=O)Cc2cc3c(CN(C)C)c(O)ccc3nc2-1 [TOPOTECAN]

Assay: as §1, with “on Z-011” for “on Z-029”, “to mouse” for “to rat”, “number: ERS12561811” for “number: ERS12561828”
Conditions: 2 µM

Row | Bacterial Biotransformation | Structure (SMILES)
16 | Compound metabolized | CCN(CC)CCNC(=O)c1cc(S(C)(=O)=O)ccc1OC [TIAPRIDE]
17 | Compound NOT metabolized | CC(C)(C)NC[C@H](O)COc1nsnc1N1CCOCC1.O=C(O)/C=C\C(=O)O [TIMOLOL MALEATE]
18 | Compound NOT metabolized | CC[C@@]1(O)C(=O)OCc2c1cc1n(c2=O)Cc2cc3c(CN(C)C)c(O)ccc3nc2-1 [TOPOTECAN]

Assay: as §1, with “on Z-002” for “on Z-029”, “to rabbit” for “to rat”, “number: ERS12561802” for “number: ERS12561828”
Conditions: 2 µM

Row | Bacterial Biotransformation | Structure (SMILES)
19 | Compound metabolized | CCN(CC)CCNC(=O)c1cc(S(C)(=O)=O)ccc1OC [TIAPRIDE]
20 | Compound NOT metabolized | CC(C)(C)NC[C@H](O)COc1nsnc1N1CCOCC1.O=C(O)/C=C\C(=O)O [TIMOLOL MALEATE]
21 | Compound NOT metabolized | CC[C@@]1(O)C(=O)OCc2c1cc1n(c2=O)Cc2cc3c(CN(C)C)c(O)ccc3nc2-1 [TOPOTECAN]

Assay: as §1, with “on WLS-240” for “on Z-029”, “to human” for “to rat”, “number: ERS12561773” for “number: ERS12561828”
Conditions: 2 µM

Row | Bacterial Biotransformation | Structure (SMILES)
22 | Compound metabolized | CCN(CC)CCNC(=O)c1cc(S(C)(=O)=O)ccc1OC [TIAPRIDE]
23 | Compound NOT metabolized | CC(C)(C)NC[C@H](O)COc1nsnc1N1CCOCC1.O=C(O)/C=C\C(=O)O [TIMOLOL MALEATE]
24 | Compound NOT metabolized | CC[C@@]1(O)C(=O)OCc2c1cc1n(c2=O)Cc2cc3c(CN(C)C)c(O)ccc3nc2-1 [TOPOTECAN]

Assay: as §1, with “on WLS-098” for “on Z-029”, “to human” for “to rat”, “number: ERS12561754” for “number: ERS12561828”
Conditions: 2 µM

Row | Bacterial Biotransformation | Structure (SMILES)
25 | Compound metabolized | CCN(CC)CCNC(=O)c1cc(S(C)(=O)=O)ccc1OC [TIAPRIDE]
26 | Compound NOT metabolized | CC(C)(C)NC[C@H](O)COc1nsnc1N1CCOCC1.O=C(O)/C=C\C(=O)O [TIMOLOL MALEATE]
27 | Compound NOT metabolized | CC[C@@]1(O)C(=O)OCc2c1cc1n(c2=O)Cc2cc3c(CN(C)C)c(O)ccc3nc2-1 [TOPOTECAN]

Assay: as §1, with “on WLS-069” for “on Z-029”, “to human” for “to rat”, “number: ERS12561748” for “number: ERS12561828”
Conditions: 2 µM

Row | Bacterial Biotransformation | Structure (SMILES)
28 | Compound NOT metabolized | CCN(CC)CCNC(=O)c1cc(S(C)(=O)=O)ccc1OC [TIAPRIDE]
29 | Compound NOT metabolized | CC(C)(C)NC[C@H](O)COc1nsnc1N1CCOCC1.O=C(O)/C=C\C(=O)O [TIMOLOL MALEATE]
30 | Compound NOT metabolized | CC[C@@]1(O)C(=O)OCc2c1cc1n(c2=O)Cc2cc3c(CN(C)C)c(O)ccc3nc2-1 [TOPOTECAN]

Assay: as §1, with “on WLS-038” for “on Z-029”, “to human” for “to rat”, “number: ERS12561745” for “number: ERS12561828”
Conditions: 2 µM

Row | Bacterial Biotransformation | Structure (SMILES)
31 | Compound NOT metabolized | CCN(CC)CCNC(=O)c1cc(S(C)(=O)=O)ccc1OC [TIAPRIDE]
32 | Compound NOT metabolized | CC(C)(C)NC[C@H](O)COc1nsnc1N1CCOCC1.O=C(O)/C=C\C(=O)O [TIMOLOL MALEATE]
33 | Compound NOT metabolized | CC[C@@]1(O)C(=O)OCc2c1cc1n(c2=O)Cc2cc3c(CN(C)C)c(O)ccc3nc2-1 [TOPOTECAN]

Conditions: human gut metagenome, 24 h, 2 µM

Row | Bacterial Biotransformation | Structure (SMILES)
34 | Compound NOT metabolized | CCN(CC)CCNC(=O)c1cc(S(C)(=O)=O)ccc1OC [TIAPRIDE]
35 | Compound NOT metabolized | CC(C)(C)NC[C@H](O)COc1nsnc1N1CCOCC1.O=C(O)/C=C\C(=O)O [TIMOLOL MALEATE]
36 | Compound NOT metabolized | CC[C@@]1(O)C(=O)OCc2c1cc1n(c2=O)Cc2cc3c(CN(C)C)c(O)ccc3nc2-1 [TOPOTECAN]

Conditions: human gut metagenome, 24 h, 2 µM
Remark: another data set of the same source

Row | Bacterial Biotransformation | Structure (SMILES)
37 | Compound NOT metabolized | CCN(CC)CCNC(=O)c1cc(S(C)(=O)=O)ccc1OC [TIAPRIDE]
38 | Compound NOT metabolized | CC(C)(C)NC[C@H](O)COc1nsnc1N1CCOCC1.O=C(O)/C=C\C(=O)O [TIMOLOL MALEATE]
39 | Compound NOT metabolized | CC[C@@]1(O)C(=O)OCc2c1cc1n(c2=O)Cc2cc3c(CN(C)C)c(O)ccc3nc2-1 [TOPOTECAN]

Conditions: human gut metagenome, 24 h, 2 µM
Remark: another data set of the same source

Row | Bacterial Biotransformation | Structure (SMILES)
40 | Compound NOT metabolized | CCN(CC)CCNC(=O)c1cc(S(C)(=O)=O)ccc1OC [TIAPRIDE]
41 | Compound NOT metabolized | CC(C)(C)NC[C@H](O)COc1nsnc1N1CCOCC1.O=C(O)/C=C\C(=O)O [TIMOLOL MALEATE]
42 | Compound NOT metabolized | CC[C@@]1(O)C(=O)OCc2c1cc1n(c2=O)Cc2cc3c(CN(C)C)c(O)ccc3nc2-1 [TOPOTECAN]

Conditions: human gut metagenome, 24 h, 2 µM
Remark: another data set of the same source

Row | Bacterial Biotransformation | Structure (SMILES)
43 | Compound NOT metabolized | CCN(CC)CCNC(=O)c1cc(S(C)(=O)=O)ccc1OC [TIAPRIDE]
44 | Compound NOT metabolized | CC(C)(C)NC[C@H](O)COc1nsnc1N1CCOCC1.O=C(O)/C=C\C(=O)O [TIMOLOL MALEATE]
45 | Compound NOT metabolized | CC[C@@]1(O)C(=O)OCc2c1cc1n(c2=O)Cc2cc3c(CN(C)C)c(O)ccc3nc2-1 [TOPOTECAN]

Conditions: human gut metagenome, 24 h, 2 µM
Remark: another data set of the same source

Row | Bacterial Biotransformation | Structure (SMILES)
46 | Compound metabolized | CCN(CC)CCNC(=O)c1cc(S(C)(=O)=O)ccc1OC [TIAPRIDE]
47 | Compound NOT metabolized | CC(C)(C)NC[C@H](O)COc1nsnc1N1CCOCC1.O=C(O)/C=C\C(=O)O [TIMOLOL MALEATE]
48 | Compound NOT metabolized | CC[C@@]1(O)C(=O)OCc2c1cc1n(c2=O)Cc2cc3c(CN(C)C)c(O)ccc3nc2-1 [TOPOTECAN]

Conditions: human gut metagenome, 24 h, 2 µM
Remark: another data set of the same source

Row | Bacterial Biotransformation | Structure (SMILES)
49 | Compound NOT metabolized | CCN(CC)CCNC(=O)c1cc(S(C)(=O)=O)ccc1OC [TIAPRIDE]
50 | Compound NOT metabolized | CC(C)(C)NC[C@H](O)COc1nsnc1N1CCOCC1.O=C(O)/C=C\C(=O)O [TIMOLOL MALEATE]
51 | Compound NOT metabolized | CC[C@@]1(O)C(=O)OCc2c1cc1n(c2=O)Cc2cc3c(CN(C)C)c(O)ccc3nc2-1 [TOPOTECAN]

Conditions: human gut metagenome, 24 h, 2 µM
Remark: another data set of the same source

Row | Bacterial Biotransformation | Structure (SMILES)
52 | Compound NOT metabolized | CCN(CC)CCNC(=O)c1cc(S(C)(=O)=O)ccc1OC [TIAPRIDE]
53 | Compound NOT metabolized | CC(C)(C)NC[C@H](O)COc1nsnc1N1CCOCC1.O=C(O)/C=C\C(=O)O [TIMOLOL MALEATE]
54 | Compound NOT metabolized | CC[C@@]1(O)C(=O)OCc2c1cc1n(c2=O)Cc2cc3c(CN(C)C)c(O)ccc3nc2-1 [TOPOTECAN]

Conditions: human gut metagenome, 24 h, 2 µM
Remark: another data set of the same source

Row | Bacterial Biotransformation | Structure (SMILES)
55 | Compound NOT metabolized | CCN(CC)CCNC(=O)c1cc(S(C)(=O)=O)ccc1OC [TIAPRIDE]
56 | Compound NOT metabolized | CC(C)(C)NC[C@H](O)COc1nsnc1N1CCOCC1.O=C(O)/C=C\C(=O)O [TIMOLOL MALEATE]
57 | Compound NOT metabolized | CC[C@@]1(O)C(=O)OCc2c1cc1n(c2=O)Cc2cc3c(CN(C)C)c(O)ccc3nc2-1 [TOPOTECAN]

Conditions: human gut metagenome, 24 h, 2 µM
Remark: another data set of the same source

Row | Bacterial Biotransformation | Structure (SMILES)
58 | Compound metabolized | CCN(CC)CCNC(=O)c1cc(S(C)(=O)=O)ccc1OC [TIAPRIDE]
59 | Compound NOT metabolized | CC(C)(C)NC[C@H](O)COc1nsnc1N1CCOCC1.O=C(O)/C=C\C(=O)O [TIMOLOL MALEATE]
60 | Compound NOT metabolized | CC[C@@]1(O)C(=O)OCc2c1cc1n(c2=O)Cc2cc3c(CN(C)C)c(O)ccc3nc2-1 [TOPOTECAN]
